Assay results from article PMC4036672 (Analytical biochemistry, 2014).
Where a SMILES comes first, the peptide text is derived from it.

target: T1, Neuropilin-2 (Nrp2) (Homo sapiens, UniProt O60462); test: competition plate assay: AP-VEGF-C binding to immobilised purified Nrp2-b1b2
T1 sequence (O60462 276-595): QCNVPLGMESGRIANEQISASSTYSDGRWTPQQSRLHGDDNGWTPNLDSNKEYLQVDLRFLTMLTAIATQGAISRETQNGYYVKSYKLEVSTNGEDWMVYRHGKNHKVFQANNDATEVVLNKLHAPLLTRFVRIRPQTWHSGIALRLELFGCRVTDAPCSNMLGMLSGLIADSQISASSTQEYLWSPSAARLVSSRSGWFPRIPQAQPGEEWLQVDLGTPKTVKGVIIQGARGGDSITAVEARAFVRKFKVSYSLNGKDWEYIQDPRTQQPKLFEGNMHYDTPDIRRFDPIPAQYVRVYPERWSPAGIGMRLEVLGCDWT

| Structure (SMILES) | IC50 |
| --- | --- |
| CC(C)C[C@H](NC(=O)[C@H](Cc1c[nH]c2ccccc12)NC(=O)[C@@H](NC(=O)[C@H](C)N)[C@@H](C)O)C(=O)N1CCC[C@H]1C(=O)N1CCC[C@H]1C(=O)N[C@@H](CCCNC(=N)N)C(=O)O [ATWLPPR] (H-ATWLPPR-OH) | 43 µM |
| COc1cc(C(=O)NS(=O)(=O)c2ccccc2C)ccc1Cc1cn(C)c2ccc(NC(=O)OC3CCCC3)cc12 [Zafirlukast] | 66 µM |
| Oc1cc2c(cc1O)[C@H]1c3ccccc3CN[C@@H]1CC2 (racemic) [Dihydrexidine] | 113 µM |
